Data reported in ChEMBL document CHEMBL3045074, “Synthesis and anticonvulsant activity of novel quinazolin-4(3H)-one derived pyrazole analogs” (Med Chem Res, 2013).
Calls of active or inactive are those of the source. No cut-off for these calls is given here.

Key:
Mus musculus [1] = test: Anticonvulsant activity in Swiss albino Mus musculus (mouse) assessed as protection against maximal electroshock-induced seizures at 30 mg/kg, ip after 0.5 hr; type: functional, organism-based; parameters: dose 30 mg/kg
Rattus norvegicus [2] = test: Anticonvulsant activity in Wistar Rattus norvegicus (rat) assessed as protection against maximal electroshock-induced seizures at 30 mg/kg, po after 4 hr; type: functional
Rattus norvegicus [3] = test: Neurotoxicity in Wistar Rattus norvegicus (rat) assessed as minimal motor impairment at 30 mg/kg, po after 0.25 to 4 hr by rotorod test; type: toxicity, organism-based; parameters: dose 30 mg/kg, route oral; settings: in vivo
Rattus norvegicus [4] = test: Anticonvulsant activity in Wistar Rattus norvegicus (rat) assessed as protection against maximal electroshock-induced seizures at 30 mg/kg, po after 2 hr; type: functional
Rattus norvegicus [5] = test: Anticonvulsant activity in Wistar Rattus norvegicus (rat) assessed as protection against maximal electroshock-induced seizures at 30 mg/kg, po after 1 hr; type: functional
Rattus norvegicus [6] = test: Anticonvulsant activity in Wistar Rattus norvegicus (rat) assessed as protection against maximal electroshock-induced seizures at 30 mg/kg, po after 0.5 hr; type: functional
Rattus norvegicus [7] = test: Anticonvulsant activity in Wistar Rattus norvegicus (rat) assessed as protection against maximal electroshock-induced seizures at 30 mg/kg, po after 0.25 hr; type: functional
Mus musculus [8] = test: Neurotoxicity in Swiss albino Mus musculus (mouse) assessed as minimal motor impairment at 100 mg/kg, ip after 4 hr by rotorod test; type: toxicity, organism-based; parameters: dose 100 mg/kg, route intraperitoneal; settings: in vivo
Mus musculus [9] = test: Neurotoxicity in Swiss albino Mus musculus (mouse) assessed as minimal motor impairment at 100 mg/kg, ip after 0.5 hr by rotorod test; type: toxicity, organism-based; parameters: dose 100 mg/kg, route intraperitoneal; settings: in vivo
Mus musculus [10] = test: Anticonvulsant activity in Swiss albino Mus musculus (mouse) assessed as protection against subcutaneous pentylenetetrazole-induced seizure at 300 mg/kg, ip after 4 hr; type: functional, organism-based; parameters: dose 300 mg/kg
Mus musculus [11] = test: Anticonvulsant activity in Swiss albino Mus musculus (mouse) assessed as protection against subcutaneous pentylenetetrazole-induced seizure at 300 mg/kg, ip after 0.5 hr; type: functional, organism-based; parameters: dose 300 mg/kg
Mus musculus [12] = test: Anticonvulsant activity in Swiss albino Mus musculus (mouse) assessed as protection against maximal electroshock-induced seizures at 30 mg/kg, ip after 4 hr; type: functional, organism-based; parameters: dose 30 mg/kg
Mus musculus [13] = test: Anticonvulsant activity in Swiss albino Mus musculus (mouse) assessed as protection against maximal electroshock-induced seizures at 300 mg/kg, ip after 4 hr; type: functional, organism-based; parameters: dose 300 mg/kg
Mus musculus [14] = test: Anticonvulsant activity in Swiss albino Mus musculus (mouse) assessed as protection against maximal electroshock-induced seizures at 300 mg/kg, ip after 0.5 hr; type: functional, organism-based; parameters: dose 300 mg/kg
Mus musculus [15] = test: Neurotoxicity in Swiss albino Mus musculus (mouse) assessed as minimal motor impairment at 300 mg/kg, ip after 4 hr by rotorod test; type: toxicity, organism-based; parameters: dose 300 mg/kg, route intraperitoneal; settings: in vivo
Mus musculus [16] = test: Neurotoxicity in Swiss albino Mus musculus (mouse) assessed as minimal motor impairment at 300 mg/kg, ip after 0.5 hr by rotorod test; type: toxicity, organism-based; parameters: dose 300 mg/kg, route intraperitoneal; settings: in vivo
Mus musculus [17] = test: Anticonvulsant activity in Swiss albino Mus musculus (mouse) assessed as protection against maximal electroshock-induced seizures at 100 mg/kg, ip after 4 hr; type: functional, organism-based; parameters: dose 100 mg/kg
Mus musculus [18] = test: Anticonvulsant activity in Swiss albino Mus musculus (mouse) assessed as protection against maximal electroshock-induced seizures at 100 mg/kg, ip after 0.5 hr; type: functional, organism-based; parameters: dose 100 mg/kg
Mus musculus [19] = test: Anticonvulsant activity in Swiss albino Mus musculus (mouse) assessed as protection against subcutaneous pentylenetetrazole-induced seizure at 100 mg/kg, ip after 0.5 hr; type: functional, organism-based; parameters: dose 100 mg/kg
Mus musculus [20] = test: Anticonvulsant activity in Swiss albino Mus musculus (mouse) assessed as protection against subcutaneous pentylenetetrazole-induced seizure at 30 to 300 mg/kg, ip after 0.5 hr; type: functional, organism-based

Row | Compound | Activity (Mus musculus [1]) | Activity (Rattus norvegicus [2]) | Activity (Rattus norvegicus [3]) | Activity (Rattus norvegicus [4]) | Activity (Rattus norvegicus [5]) | Activity (Rattus norvegicus [6]) | Activity (Rattus norvegicus [7]) | Activity (Mus musculus [8]) | Activity (Mus musculus [9]) | Activity (Mus musculus [10]) | Activity (Mus musculus [11]) | Activity (Mus musculus [12]) | Activity (Mus musculus [13]) | Activity (Mus musculus [14]) | Activity (Mus musculus [15]) | Activity (Mus musculus [16]) | Activity (Mus musculus [17]) | Activity (Mus musculus [18]) | Activity (Mus musculus [19]) | Activity (Mus musculus [20])
1 | O=C1NC(=O)C(c2ccccc2)(c2ccccc2)N1 [PHENYTOIN] | Active | 75% | Non-toxic | 75% | 75% | 100% | 25% | Toxic | Toxic | inactive | inactive | Active |  |  |  |  |  |  |  | 
2 | Cc1ccc(C2CC(c3ccccc3)=NN2C(=O)c2ccc(-n3c(-c4ccccc4)nc4ccccc4c3=O)cc2)cc1 (configuration not stated) |  |  |  |  |  |  |  |  |  | inactive | inactive |  | inactive | Active |  |  |  |  |  | 
3 | Cc1nc2c(Br)cc(Br)cc2c(=O)n1-c1ccc(C(=O)N2N=C(c3ccccc3)CC2c2ccc(O)cc2)cc1 (configuration not stated) | Active | 100% | Non-toxic | 100% | 50% | 50% | 25% |  |  | Active | Active |  |  |  | Non-toxic | Toxic | Active |  |  | 
4 | Cc1nc2ccccc2c(=O)n1-c1ccc(C(=O)N2N=C(c3ccccc3)CC2c2ccc(O)cc2)cc1 (configuration not stated) | Active | 100% | Non-toxic | 100% | 50% | 50% | 25% |  | Toxic | Active | Active |  | Active |  | Toxic |  |  |  |  | 
5 | Cc1nc2ccccc2c(=O)n1-c1ccc(C(=O)N2N=C(c3ccccc3)CC2c2cccc([N+](=O)[O-])c2)cc1 (configuration not stated) |  |  |  |  |  |  |  |  |  | Active | inactive |  | inactive | inactive |  |  |  |  |  | 
6 | COc1ccc(C2CC(c3ccccc3)=NN2C(=O)c2ccc(-n3c(C)nc4ccccc4c3=O)cc2)cc1 (configuration not stated) |  |  |  |  |  |  |  |  |  | inactive | Active |  | inactive |  | Toxic | Non-toxic |  | Active |  | 
7 | COc1ccc(C2CC(c3ccccc3)=NN2C(=O)c2ccc(-n3c(-c4ccccc4)nc4ccccc4c3=O)cc2)cc1 (configuration not stated) |  |  |  |  |  |  |  |  |  | Active | inactive |  | Active | inactive |  |  |  |  |  | 
8 | Cc1ccc(C2CC(c3ccccc3)=NN2C(=O)c2ccc(-n3c(C)nc4ccccc4c3=O)cc2)cc1 (configuration not stated) |  | 75% | Non-toxic | 75% | 50% | 50% | 25% |  |  | Active |  |  | Active |  | Non-toxic | Non-toxic |  | Active | Active | 
9 | Cc1ccc(C2CC(c3ccccc3)=NN2C(=O)c2ccc(-n3c(C)nc4c(Br)cc(Br)cc4c3=O)cc2)cc1 (configuration not stated) |  | 75% | Non-toxic | 75% | 50% | 50% | 25% |  |  | Active |  |  | Active |  | Toxic | Non-toxic |  | Active |  | Active
10 | Cc1nc2c(Br)cc(Br)cc2c(=O)n1-c1ccc(C(=O)N2N=C(c3ccccc3)CC2c2ccc(Cl)cc2)cc1 (configuration not stated) | Active | 100% | Non-toxic | 100% | 50% | 50% | 25% |  |  | Active |  |  |  |  | Non-toxic | Non-toxic | Active |  | Active | 
11 | O=C(c1ccc(-n2c(-c3ccccc3)nc3ccccc3c2=O)cc1)N1N=C(c2ccccc2)CC1c1ccc(Cl)cc1 (configuration not stated) |  |  |  |  |  |  |  |  |  | inactive | Active |  | Active |  | Toxic | Non-toxic |  | Active |  | 
12 | CN(C)c1ccc(C2CC(c3ccccc3)=NN2C(=O)c2ccc(-n3c(-c4ccccc4)nc4ccccc4c3=O)cc2)cc1 (configuration not stated) |  |  |  |  |  |  |  |  |  | inactive | inactive |  | Active | inactive |  |  |  |  |  | 
13 | Cc1nc2c(Br)cc(Br)cc2c(=O)n1-c1ccc(C(=O)N2N=C(c3ccccc3)CC2c2ccc(N(C)C)cc2)cc1 (configuration not stated) | Active | 0% | Non-toxic | 0% | 25% | 50% | 0% |  |  | inactive | Active |  |  |  | Toxic | Toxic | Active |  |  | 
14 | Cc1nc2ccccc2c(=O)n1-c1ccc(C(=O)N2N=C(c3ccccc3)CC2c2ccc(Cl)cc2)cc1 (configuration not stated) | Active | 75% | Non-toxic | 75% | 50% | 50% | 25% |  |  | Active |  |  |  |  | Non-toxic | Toxic | Active |  | Active | 
15 | COc1ccc(C2CC(c3ccccc3)=NN2C(=O)c2ccc(-n3c(C)nc4c(Br)cc(Br)cc4c3=O)cc2)cc1 (configuration not stated) |  |  |  |  |  |  |  |  |  | inactive | Active |  | Active |  | Toxic | Toxic |  | Active |  | 
16 | O=C(c1ccc(-n2c(-c3ccccc3)nc3ccccc3c2=O)cc1)N1N=C(c2ccccc2)CC1c1ccc(O)cc1 (configuration not stated) |  |  |  |  |  |  |  |  |  | Active | inactive |  | inactive |  | Non-toxic | Non-toxic |  | Active |  | 
17 | O=C(c1ccc(-n2c(-c3ccccc3)nc3ccccc3c2=O)cc1)N1N=C(c2ccccc2)CC1c1cccc([N+](=O)[O-])c1 (configuration not stated) |  |  |  |  |  |  |  |  |  | inactive | Active |  | inactive | inactive |  |  |  |  |  | 
18 | Cc1nc2c(Br)cc(Br)cc2c(=O)n1-c1ccc(C(=O)N2N=C(c3ccccc3)CC2c2cccc([N+](=O)[O-])c2)cc1 (configuration not stated) |  |  |  |  |  |  |  |  |  | Active | inactive |  | inactive | inactive |  |  |  |  |  | 
19 | Cc1nc2ccccc2c(=O)n1-c1ccc(C(=O)N2N=C(c3ccccc3)CC2c2ccc(N(C)C)cc2)cc1 (configuration not stated) |  | 50% | Non-toxic | 25% | 0% | 0% | 0% |  |  | Active |  |  | Active |  | Non-toxic | Non-toxic |  | Active | Active | 
20 | CCC1(C)CC(=O)NC1=O (configuration not stated) [ETHOSUXIMIDE] |  |  |  |  |  |  |  |  |  | Active |  |  | inactive | inactive | Non-toxic | Non-toxic |  |  | Active | 
